This note sets out measurements from publication PMC7531004, “Discovery of gramicidin A analogues with altered activities by multidimensional screening of a one-bead-one-compound library” (Nature Communications, 2020).

Data set [1] can be described thus: H+/Na+ transport assay of bead-derived peptides (one-point).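 Also: relative to parent gramicidin A activity set to 1.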 Type of data set: biochemical. Set-up: key: relative activity; mean of two control wells = 1.00. The conditions noted are these: bead-derived peptide solution, EYPC/EYPG LUVs. In short, it runs like this: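 Miniaturized 96-well format. LUVs with entrapped pyranine (1.0 mM) were exposed to peptide for 30 min at RT. Intensities were expressed relative to full lysis by Triton X-100 and no treatment, with control-well mean = 1.00.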

The conditions of data set [2]: cell viability/%. In short, it runs like this:
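P388 cells at 1 × 10^4 cells/mL (final) were exposed to library peptides (stocks diluted 250-fold in RPMI1640/10% FBS) for 92 h at 37 °C, 5% CO2. Viable cells were counted by WST-1/1-methoxy PMS (4 h), absorbance 415 nm, and expressed as cell viability (%).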

The subject of data set [3] is Streptococcus pyogenes SSI-9. Briefly: Antibacterial activity assay of bead-derived peptides (three concentrations). In kind it is cell-based. More on the design: key: +++: inhibition by the 640-fold diluted peptide solution; ++: inhibition by the 160-fold diluted solution; +: inhibition by the 40-fold diluted solution; -: no inhibition. Conditions: S. pyogenes, bead-derived peptide solution, three concentrations. In a few lines:
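Undiluted, 4-fold and 16-fold DMSO-diluted peptide stocks; S. pyogenes SSI-9, 2 × 10^5 CFU, cation-adjusted MHB (50 mg/L Ca2+, 25 mg/L Mg2+) + 5% laked horse blood; 37 °C, 18 h; readout = cell pellet visible or not.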

Where a SMILES comes first, the peptide text is derived from it. [ ]: non-standard residue; d: D form. The star is where a group is joined. NHCH2CH2OH = OCCN*; For = O=C*

`CNC(=O)C[C@@H](NC(=O)[C@H](Cc1c[nH]c2ccccc12)NC(=O)[C@@H](CC(C)C)NC(=O)[C@H](Cc1c[nH]c2ccccc12)NC(=O)[C@@H](CC(C)C)NC(=O)[C@@H](NC(=O)[C@@H](CC(C)C)NC(=O)[C@H](C)NC(=O)[C@@H](CC(C)C)NC(=O)[C@H](C)NC(=O)CNC(=O)[C@@H](NC=O)C(C)C)C(C)C)C(=O)N[C@@H](Cc1c[nH]c2ccccc12)C(=O)N[C@@H](C(=O)N[C@@H](Cc1c[nH]c2ccccc12)C(=O)NCCO)[C@H](C)O` [compound 3773] (For-VGA[dL]A[dL]V[dL]W[dL]W[dD](NHMe)W[dT]W-NHCH2CH2OH): the “H+/Na+ transport activity normalized against the value of 1 (1.00)” value (“H+/Na+ transport activity normalized” for short) in data set [1] was found to be 1.03. For the same compound, in data set [2], the viability – broadly, a read-out of living cells in per cent, often relative to untreated cells – was determined as 100%. In addition, the antibacterial activity entry in data set [3] is “-”.
For the compound `CC(C)C[C@@H](NC(=O)[C@H](C)NC(=O)[C@H](NC(=O)[C@H](C)NC(=O)CNC(=O)[C@@H](NC=O)C(C)C)[C@H](C)O)C(=O)N[C@H](C(=O)N[C@H](CC(C)C)C(=O)N[C@@H](Cc1c[nH]c2ccccc12)C(=O)N[C@H](CC(C)C)C(=O)N[C@@H](Cc1c[nH]c2ccccc12)C(=O)N[C@H](CC(C)C)C(=O)N[C@@H](Cc1c[nH]c2ccccc12)C(=O)N[C@@H](C(=O)N[C@@H](Cc1c[nH]c2ccccc12)C(=O)NCCO)C(C)C)C(C)C` [compound 3778] (For-VGA[dT]A[dL]V[dL]W[dL]W[dL]W[dV]W-NHCH2CH2OH), the “H+/Na+ transport activity normalized” value in data set [1] is 1.08. In data set [2], this compound returned a viability of 100%. Further, the antibacterial activity result in data set [3] is “-”.
Regarding `CC(C)C[C@@H](NC(=O)[C@H](C)NC(=O)CNC(=O)[C@@H](NC=O)C(C)C)C(=O)N[C@@H](C)C(=O)N[C@H](CC(C)C)C(=O)N[C@H](C(=O)N[C@@H](C(=O)N[C@@H](Cc1c[nH]c2ccccc12)C(=O)N[C@@H](C(=O)N[C@@H](Cc1c[nH]c2ccccc12)C(=O)N[C@@H](C(=O)N[C@@H](Cc1c[nH]c2ccccc12)C(=O)N[C@H](CC(C)C)C(=O)N[C@@H](Cc1c[nH]c2ccccc12)C(=O)NCCO)C(C)C)[C@H](C)O)[C@H](C)O)C(C)C` [compound 3782] (For-VGA[dL]A[dL]V[dT]W[dT]W[dV]W[dL]W-NHCH2CH2OH), the “H+/Na+ transport activity normalized” value in data set [1] stood at 1.12. The same compound yielded a viability in data set [2] of 100%. In data set [3], the antibacterial activity entry is listed as “-”.
Consider `CC(C)C[C@@H](NC(=O)[C@H](Cc1c[nH]c2ccccc12)NC(=O)[C@@H](CC(C)C)NC(=O)[C@H](Cc1c[nH]c2ccccc12)NC(=O)[C@@H](CC(C)C)NC(=O)[C@H](Cc1c[nH]c2ccccc12)NC(=O)[C@H](NC(=O)[C@@H](NC(=O)[C@H](NC(=O)[C@H](C)NC(=O)[C@H](NC(=O)[C@H](C)NC(=O)CNC(=O)[C@@H](NC=O)C(C)C)[C@H](C)O)C(C)C)C(C)C)C(C)C)C(=O)N[C@@H](Cc1c[nH]c2ccccc12)C(=O)NCCO` [compound 3786] (For-VGA[dT]A[dV]V[dV]W[dL]W[dL]W[dL]W-NHCH2CH2OH), for which, in data set [1], the “H+/Na+ transport activity normalized” value worked out at 1.18. This compound registered a viability in data set [2] of 100%. The antibacterial activity entry in data set [3] is listed as “-”.
For `CC(C)C[C@@H](NC(=O)[C@H](C)NC(=O)[C@H](NC(=O)[C@H](C)NC(=O)CNC(=O)[C@@H](NC=O)C(C)C)C(C)C)C(=O)N[C@H](C(=O)N[C@H](CC(C)C)C(=O)N[C@@H](Cc1c[nH]c2ccccc12)C(=O)N[C@H](CC(C)C)C(=O)N[C@@H](Cc1c[nH]c2ccccc12)C(=O)N[C@@H](C(=O)N[C@@H](Cc1c[nH]c2ccccc12)C(=O)N[C@@H](C(=O)N[C@@H](Cc1c[nH]c2ccccc12)C(=O)NCCO)[C@H](C)O)C(C)C)C(C)C` [compound 3828] (For-VGA[dV]A[dL]V[dL]W[dL]W[dV]W[dT]W-NHCH2CH2OH), in data set [1], the “H+/Na+ transport activity normalized” value worked out at 1.02. The same compound had a viability in data set [2] of 95.2%. For the same compound, in data set [3], the antibacterial activity result was “+”.
As to `CNC(=O)C[C@@H](NC(=O)[C@H](Cc1c[nH]c2ccccc12)NC(=O)[C@@H](CC(C)C)NC(=O)[C@H](Cc1c[nH]c2ccccc12)NC(=O)[C@H](NC(=O)[C@H](Cc1c[nH]c2ccccc12)NC(=O)[C@@H](CC(C)C)NC(=O)[C@@H](NC(=O)[C@@H](CC(C)C)NC(=O)[C@H](C)NC(=O)[C@@H](CC(C)C)NC(=O)[C@H](C)NC(=O)CNC(=O)[C@@H](NC=O)C(C)C)C(C)C)C(C)C)C(=O)N[C@@H](Cc1c[nH]c2ccccc12)C(=O)NCCO` [compound 3854] (For-VGA[dL]A[dL]V[dL]W[dV]W[dL]W[dD](NHMe)W-NHCH2CH2OH), the “H+/Na+ transport activity normalized” value in data set [1] came out at 1.18. Also, the viability in data set [2] turned out to be 100%. In data set [3], the antibacterial activity entry is listed as “-”.
`CC(C)C[C@@H](NC(=O)[C@H](C)NC(=O)CNC(=O)[C@@H](NC=O)C(C)C)C(=O)N[C@@H](C)C(=O)N[C@H](CC(C)C)C(=O)N[C@H](C(=O)N[C@@H](C(=O)N[C@@H](Cc1c[nH]c2ccccc12)C(=O)N[C@@H](C(=O)N[C@@H](Cc1c[nH]c2ccccc12)C(=O)N[C@H](CC(C)C)C(=O)N[C@@H](Cc1c[nH]c2ccccc12)C(=O)N[C@H](CC(C)C)C(=O)N[C@@H](Cc1c[nH]c2ccccc12)C(=O)NCCO)[C@H](C)O)[C@H](C)O)C(C)C` [compound 3858] (For-VGA[dL]A[dL]V[dT]W[dT]W[dL]W[dL]W-NHCH2CH2OH): the “H+/Na+ transport activity normalized” value in data set [1] was determined as 1.28. Also, the viability in data set [2] was determined as 100%. Moreover, the antibacterial activity result in data set [3] is recorded as “-”.
In the case of `CC(C)C[C@@H](NC(=O)[C@H](C)NC(=O)CNC(=O)[C@@H](NC=O)C(C)C)C(=O)N[C@@H](C)C(=O)N[C@@H](C(=O)N[C@H](C(=O)N[C@@H](C(=O)N[C@@H](Cc1c[nH]c2ccccc12)C(=O)N[C@H](CC(C)C)C(=O)N[C@@H](Cc1c[nH]c2ccccc12)C(=O)N[C@@H](C(=O)N[C@@H](Cc1c[nH]c2ccccc12)C(=O)N[C@H](CC(C)C)C(=O)N[C@@H](Cc1c[nH]c2ccccc12)C(=O)NCCO)C(C)C)C(C)C)C(C)C)C(C)C` [compound 3861] (For-VGA[dL]A[dV]V[dV]W[dL]W[dV]W[dL]W-NHCH2CH2OH), the “H+/Na+ transport activity normalized” value in data set [1] was 1.51. This compound also had a viability in data set [2] of 0.1%. Moreover, the antibacterial activity entry in data set [3] was “++”.
As to `CNC(=O)C[C@@H](NC(=O)[C@H](Cc1c[nH]c2ccccc12)NC(=O)[C@H](NC(=O)[C@H](Cc1c[nH]c2ccccc12)NC(=O)[C@H](NC(=O)[C@H](Cc1c[nH]c2ccccc12)NC(=O)[C@@H](CC(C)C)NC(=O)[C@@H](NC(=O)[C@@H](CC(C)C)NC(=O)[C@H](C)NC(=O)[C@H](NC(=O)[C@H](C)NC(=O)CNC(=O)[C@@H](NC=O)C(C)C)C(C)C)C(C)C)C(C)C)C(C)C)C(=O)N[C@@H](Cc1c[nH]c2ccccc12)C(=O)NCCO` [compound 3866] (For-VGA[dV]A[dL]V[dL]W[dV]W[dV]W[dD](NHMe)W-NHCH2CH2OH), the “H+/Na+ transport activity normalized” value in data set [1] came to 1.31. In data set [2], this compound gave a viability of 100%. The antibacterial activity result in data set [3] was “-”.
On the same counts, the results for `CNC(=O)C[C@@H](NC(=O)[C@H](Cc1c[nH]c2ccccc12)NC(=O)[C@H](NC(=O)[C@H](Cc1c[nH]c2ccccc12)NC(=O)[C@@H](CC(C)C)NC(=O)[C@@H](NC(=O)[C@@H](CC(C)C)NC(=O)[C@H](C)NC(=O)[C@@H](CC(C)C)NC(=O)[C@H](C)NC(=O)CNC(=O)[C@@H](NC=O)C(C)C)C(C)C)C(C)C)C(=O)N[C@@H](Cc1c[nH]c2ccccc12)C(=O)N[C@@H](C(=O)N[C@@H](Cc1c[nH]c2ccccc12)C(=O)NCCO)[C@H](C)O` [compound 3885] (For-VGA[dL]A[dL]V[dL]W[dV]W[dD](NHMe)W[dT]W-NHCH2CH2OH) are 1.00, 100% and “-”.
In the case of `CNC(=O)C[C@@H](NC(=O)[C@H](Cc1c[nH]c2ccccc12)NC(=O)[C@H](NC(=O)[C@H](Cc1c[nH]c2ccccc12)NC(=O)[C@@H](CC(C)C)NC(=O)[C@H](Cc1c[nH]c2ccccc12)NC(=O)[C@@H](CC(C)C)NC(=O)[C@@H](NC(=O)[C@H](NC(=O)[C@H](C)NC(=O)[C@H](NC(=O)[C@H](C)NC(=O)CNC(=O)[C@@H](NC=O)C(C)C)C(C)C)C(C)C)C(C)C)C(C)C)C(=O)N[C@@H](Cc1c[nH]c2ccccc12)C(=O)NCCO` [compound 3903] (For-VGA[dV]A[dV]V[dL]W[dL]W[dV]W[dD](NHMe)W-NHCH2CH2OH), the “H+/Na+ transport activity normalized” value in data set [1] was 1.10. Further, the viability in data set [2] stood at 100%. Besides, the antibacterial activity entry in data set [3] is “-”.
On the same counts, the results for `CNC(=O)C[C@@H](NC(=O)[C@@H](NC(=O)[C@@H](CC(C)C)NC(=O)[C@H](C)NC(=O)[C@@H](CC(C)C)NC(=O)[C@H](C)NC(=O)CNC(=O)[C@@H](NC=O)C(C)C)C(C)C)C(=O)N[C@@H](Cc1c[nH]c2ccccc12)C(=O)N[C@@H](C(=O)N[C@@H](Cc1c[nH]c2ccccc12)C(=O)N[C@@H](C(=O)N[C@@H](Cc1c[nH]c2ccccc12)C(=O)N[C@@H](C(=O)N[C@@H](Cc1c[nH]c2ccccc12)C(=O)NCCO)C(C)C)C(C)C)C(C)C` [compound 3931] (For-VGA[dL]A[dL]V[dD](NHMe)W[dV]W[dV]W[dV]W-NHCH2CH2OH) are 1.16, 100% and “-”.
